In patent US8435964B2, “Ectonucleotidase pyrophosphate/phosphodiestrase-1 (ENPP-1) as a target for the treatment of aortic valve stenosis and cardiovascular calcification” (Universite Laval, priority 2009, dated 2013):
“Also recorded” adds a separate entry of the source.

Key:
[1] = target: T1, ENPP-1 (Homo sapiens, UniProt P22413); experiment: Phosphodiesterase activity in valve interstitial cells exposed to calcifying medium; type: cell-based; details: VICs, calcifying medium (NaH2PO4 2 mM), 14 days; ARL 67156 10 μM and 25 μM
T1 construct: endogenous in cells; host or cells: primary human valve interstitial cells (VICs)
T1 sequence (P22413 1-925): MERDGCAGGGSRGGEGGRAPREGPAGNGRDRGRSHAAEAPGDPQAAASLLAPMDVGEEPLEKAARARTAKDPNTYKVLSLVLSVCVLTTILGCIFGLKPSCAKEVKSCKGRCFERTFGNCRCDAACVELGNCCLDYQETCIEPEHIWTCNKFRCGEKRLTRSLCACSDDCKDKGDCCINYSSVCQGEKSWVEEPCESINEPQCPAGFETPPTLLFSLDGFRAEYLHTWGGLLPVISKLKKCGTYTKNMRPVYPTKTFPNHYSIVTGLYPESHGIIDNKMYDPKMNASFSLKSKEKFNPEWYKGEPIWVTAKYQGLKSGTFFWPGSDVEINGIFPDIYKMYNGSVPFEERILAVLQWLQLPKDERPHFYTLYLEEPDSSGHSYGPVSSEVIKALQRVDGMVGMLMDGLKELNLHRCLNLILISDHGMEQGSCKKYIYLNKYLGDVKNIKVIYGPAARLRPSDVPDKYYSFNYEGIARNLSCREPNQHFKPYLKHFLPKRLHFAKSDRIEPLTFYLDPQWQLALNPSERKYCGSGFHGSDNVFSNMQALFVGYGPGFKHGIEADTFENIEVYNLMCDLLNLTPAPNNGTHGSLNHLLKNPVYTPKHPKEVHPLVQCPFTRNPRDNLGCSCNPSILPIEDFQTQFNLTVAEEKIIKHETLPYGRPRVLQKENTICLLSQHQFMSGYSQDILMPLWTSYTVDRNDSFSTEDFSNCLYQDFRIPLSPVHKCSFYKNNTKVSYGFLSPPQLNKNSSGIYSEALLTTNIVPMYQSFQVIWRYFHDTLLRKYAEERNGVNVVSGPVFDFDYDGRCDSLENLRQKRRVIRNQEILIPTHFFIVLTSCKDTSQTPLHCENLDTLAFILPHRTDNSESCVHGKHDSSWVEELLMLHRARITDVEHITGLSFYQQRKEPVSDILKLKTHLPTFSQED
Protocol: Phosphodiesterase activity was measured using the substrate p-nitrophenyl phenylphosphonate (PNPP-PP) (Sigma, Oakville, Ont, Canada). Proteins were isolated from normal control valves (n=14), AS valves (n=18) or valve interstitial cells (VICs) and used for enzyme activity. Cells were harvested with trypsine-EDTA (Invitrogen, Toronto, Ont, Canada), washed 2 times in washing buffer (NaCl 0.15M, TRIS-HCl pH 8.1, 20 mM, CaCl2 1 mM) and resuspended in assay buffer (NaCl 0.15M, TRIS-HCl pH 8.1, 20 mM, CaCl2 0.5 mM, 1 mM p-nitrophenyl phenylphosphonate). The same amount of proteins isolated from tissues were washed twice in washing buffer and resuspended in 600 μl of assay buffer. […] Absorbance was measured at 400 nm. Results were calculated using a molar absorption coefficient for p-nitrophenol of 18320 M^−1 cm^−1. […]
Human valve interstitial cells (VICs) were isolated by collagenase digestion from explanted hearts during transplant procedures. […] For calcium quantification, cells were decalcified with 0.6 M HCl for 24 h. The calcium content of the HCl supernatants was determined using the o-cresolphthalein complexone method. […] The protein content was determined using Biorad® assay kit (Biorad, Mississauga, Ont, Canada). […]

[2] = tested on: Human valve interstitial cells (VICs); experiment: In vitro calcification of valve interstitial cells (calcium content, o-cresolphthalein complexone method); type: cell-based; details: day 14 after treatment with calcifying medium; ARL 67156 10 μM and 25 μM
Protocol: (§1) Human valve interstitial cells (VICs) were isolated by collagenase digestion from explanted hearts during transplant procedures. Cells were cultured in DMEM containing 10% FBS, 2 mM L-glutamine and 1 mM sodium pyruvate (Invitrogen, Toronto, Ont, Canada). Cells were seeded in 12 well plates (2×10^4 cells/well). To provoke calcification, cells were incubated with a pro-calcifying medium containing: DMEM+5% FBS, 10^−7 M insulin, 50 μg/ml ascorbic acid and NaH2PO4 at 2 mM (in some experiments where it is specified NaH2PO4 was used at 1, 2 and 5 mM). […] In some experiments ARL 67156 (a competitive inhibitor of ENPP-1) (10 μM and 25 μM) was added to the growth medium Studies were conducted at day 0, 7, 14 in triplicate. For calcium quantification, cells were decalcified with 0.6 M HCl for 24 h. The calcium content of the HCl supernatants was determined using the o-cresolphthalein complexone method. After decalcification, cells were washed with PBS and solubilised with 0.1 N NaOH/0.1% SDS. The protein content was determined using Biorad® assay kit (Biorad, Mississauga, Ont, Canada). Cells calcium content was normalized to protein content.

[3] = tested on: alkaline phosphatase; experiment: Alkaline phosphatase activity in valve interstitial cells exposed to calcifying medium; type: cell-based, human; details: VICs after exposition to calcifying medium
Protocol: as §1

[4] = tested on: WVK rat model; experiment: Warfarin and vitamin K (WVK) rat model of aortic calcification; type: in vivo
Protocol: Animal experiments were approved by the Animal Care and Use Committee of Laval and Montreal Universities. Male Wistar rats (initial weight 200 g) were obtained from Charles River Breeding Laboratories (St Constant, Qc, Canada). The animals received warfarin (20 mg/kg/day in drinking water) and vitamin K (phylloquinone) (15 mg/kg/day subcutaneous injection) (WVK) (n=10) at day 1, 3, 5, 7, 14, 21, and 28. Dosages were adjusted every second day. Controls consisted of age-matched untreated rats (n=7). In two other groups of rats, ARL 67156 was administered at 0.55 μg/kg/day (n=10) and 1.1 μg/kg/day (n=10) during 28 days with osmotic pumps implanted subcutaneously. At day 28, animals were anesthetized with pentobarbital (65 mg/kg) for blood plasma sampling and the harvesting of aorta and heart. Segments of the aorta were frozen at −80° C. for the determination of calcium amount. The heart with the aortic root and valve was fixed in formaldehyde 10% for histological processing and immunohistology. […] Morphometric analyses of the aortic root (at the level of aortic valve and sinuses of Valsalva) were carried out using the Image-Pro Plus (MediaCybernetics, Bethesda, Md., USA) image analysis software to quantify the calcified areas (with the von Kossa staining) normalized to the total surface area of the section.

In the case of CCN(CC)c1ncnc2c1ncn2C1OC(COP(=O)(O)OP(=O)(O)C(Br)(Br)P(=O)(O)O)[C@@H](O)[C@H]1O (some centres unmarked) [ARL 67156], the phosphodiesterase activity [1] was “dose-dependently decreased; also recorded: significantly reduced”, the “calcification of isolated VICs” value [2] was “significantly reduced; also recorded: dose-dependently reduced” and the “alkaline phosphatase (ALP) activity” value [3] was “did not affect; also recorded: not affected”. The “calcification of the aortic root at the level of aortic cusp” value ([4]; rat treated with 1.1 μg/kg/d, von Kossa histology (FIG. 5F)) was “without calcification” and the “calcification of the aortic valve cusps” value ([4]; rats under WVK regimen, 28 days, 0.55 μg/kg/d and 1.1 μg/kg/d by osmotic pump) was “prevented the development of aortic valve calcifications; also recorded: not detected”.
